Where no end group is shown, it is not given here.
Tested on: intracellular Ca ion concentration
Assay: Biological activity assay: intracellular Ca ion concentration-increasing activity (method of Example 3 of WO 99/33976)
Format: cell-based
Settings: compared with a sample purified from human placenta extract

Substance: KiSS-1 peptide: Human KiSS-1 peptide (SEQ ID NO: 1) obtained in Example 2 by S-cyanylation and ammonolysis of a fused protein expressed in E. coli (GTSLSPPPESSGSRQQPGLSAPHSRQIPAPQGAVLVQREKDLPNYNWNSFGLRF-NH2)
- intracellular Ca ion concentration-increasing activity: equivalent to that of a sample purified from human placenta extract

— patent publication US20050176091A1, “Process for producing kiss-1 peptide” (priority 2002, published 2005)
